# Measured values: the supplement of paper PMC9663587
# Columns and labels:
# [1] = compound: CCOc1cc2ncc(C#N)c(Nc3ccc(OCc4ccccn4)c(Cl)c3)c2cc1NC(=O)/C=C/CN(C)C [Neratinib/HKI272]; assay: increase in dead-cell fraction, 72 h; higher = more death;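 note: breast cancer cell lines in 384-well plates, stained with Hoechst plus LIVE/DEAD far red dye and imaged, cells above an LDR intensity threshold counted dead, Hoechst-negative corpses included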
# [2] = compound: CCN1CCN(Cc2ccc(Nc3ncc(F)c(-c4cc(F)c5nc(C)n(C(C)C)c5c4)n3)nc2)CC1; assay: as above
# [3] = compound: CC(=O)c1c(C)c2cnc(Nc3ccc(N4CCN(CCOCCOCCOCCNC(=O)COc5cccc6c5C(=O)N(C5CCC(=O)NC5=O)C6=O)CC4)cn3)nc2n(C2CCCC2)c1=O [BSJ-03-123]; assay: as above
# [4] = compound: CN1CC[C@H](c2c(O)cc(O)c3c(=O)cc(-c4ccccc4Cl)oc23)[C@H](O)C1 [Flavopiridol]; assay: as above
# [5] = compound: CN(C)C/C=C/C(=O)Nc1ccc(C(=O)N2CCC[C@@H](Nc3ncc(Cl)c(-c4c[nH]c5ccccc45)n3)C2)cc1 [THZ531]; assay: as above
# [6] = compound: CN(C)C/C=C/C(=O)Nc1ccc(C(=O)Nc2cccc(Nc3ncc(Cl)c(-c4c[nH]c5ccccc45)n3)c2)cc1 [THZ1]; assay: as above
# [7] = compound: CN(C)C(=O)c1cc2cnc(Nc3ccc(N4CCNCC4)cn3)nc2n1C1CCCC1 [LEE011/Ribociclib]; assay: as above
# [8] = compound: C=CC(=O)Nc1ccc(C(=O)Nc2[nH]nc3c2CN(C(=O)N[C@H](CN(C)C)c2ccccc2)C3(C)C)cc1 [YKL-5-124]; assay: as above
# [9] = compound: CC(=O)c1c(C)c2cnc(Nc3ccc(N4CCNCC4)cn3)nc2n(C2CCCC2)c1=O; assay: as above
# [10] = compound: CCc1cnn2c(NCc3ccc[n+]([O-])c3)cc(N3CCCC[C@H]3CCO)nc12; assay: as above
# [11] = compound: CCCCOc1c(C(=O)c2c(F)cc(C)cc2F)c[nH]c2nncc1-2
# [12] = compound: CN1CCN(CCOc2cc(OC3CCOCC3)c3c(Nc4c(Cl)ccc5c4OCO5)ncnc3c2)CC1 [Saracatinib/AZD0530]
# [13] = compound: CCNC(=O)c1noc(-c2cc(C(C)C)c(O)cc2O)c1-c1ccc(CN2CCOCC2)cc1 [Luminespib/NVP-AUY922]
# [14] = compound: CN(C)C/C=C/C(=O)Nc1ccc(O[C@@H]2CCC[C@@H](Nc3ncc(Cl)c(-c4c[nH]c5ccccc45)n3)C2)cc1 [BSJ-01-175]
# [15] = compound: CN(C)C/C=C/C(=O)NC1=CC=C(C=C1)C(=O)NC2=CC=CC(=C2)NC3=NC=NC(=C3)C4=CNC5=CC=CC=C54 [THZ-P1-2]
# [16] = compound: Cc1cc(Nc2ncc(Cl)c(Nc3ccccc3S(=O)(=O)C(C)C)n2)c(OC(C)C)cc1C1CCNCC1 [Ceritinib/LDK378]
# 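Throughout, for GR50, 72 h: breast cancer and non-malignant breast epithelial cell lines, Deep Dye Drop or Dye Drop imaging, nine half-log doses, GR normalized to time-zero plates and DMSO-only controls.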
cell line,measurement,setting,value
HCC1143,increase in dead-cell fraction,[1]; 0.0003162 µM,0.003
same,increase in dead-cell fraction,[1]; 0.001 µM,0.0005
same,increase in dead-cell fraction,[1]; 0.003162 µM,0.006
same,increase in dead-cell fraction,[1]; 0.01 µM,0.0143
same,increase in dead-cell fraction,[1]; 0.03162 µM,0.0116
same,increase in dead-cell fraction,[1]; 0.1 µM,0.0306
same,increase in dead-cell fraction,[1]; 0.3162 µM,0.0437
same,increase in dead-cell fraction,[1]; 1 µM,0.0748
same,increase in dead-cell fraction,[1]; 3.162 µM,0.261
same,increase in dead-cell fraction,[2]; 0.001 µM,-0.0049
same,increase in dead-cell fraction,[2]; 0.003162 µM,-0.0032
same,increase in dead-cell fraction,[2]; 0.01 µM,-0.0047
same,increase in dead-cell fraction,[2]; 0.03162 µM,0.0015
same,increase in dead-cell fraction,[2]; 0.1 µM,-0.003
same,increase in dead-cell fraction,[2]; 0.3162 µM,-0.0023
same,increase in dead-cell fraction,[2]; 1 µM,0.0074
same,increase in dead-cell fraction,[2]; 3.162 µM,0.0254
same,increase in dead-cell fraction,[2]; 10 µM,0.124
same,increase in dead-cell fraction,[3]; 0.001 µM,0.0033
same,increase in dead-cell fraction,[3]; 0.003162 µM,0.0019
same,increase in dead-cell fraction,[3]; 0.01 µM,-0.0022
same,increase in dead-cell fraction,[3]; 0.03162 µM,-0.0018
same,increase in dead-cell fraction,[3]; 0.1 µM,0.0104
same,increase in dead-cell fraction,[3]; 0.3162 µM,0.011
same,increase in dead-cell fraction,[3]; 1 µM,0.0065
same,increase in dead-cell fraction,[3]; 3.162 µM,0.0186
same,increase in dead-cell fraction,[3]; 10 µM,0.102
same,increase in dead-cell fraction,[4]; 0.0001 µM,-0.0098
same,increase in dead-cell fraction,[4]; 0.0003162 µM,-0.0008
same,increase in dead-cell fraction,[4]; 0.001 µM,-0.0018
same,increase in dead-cell fraction,[4]; 0.003162 µM,0.0048
same,increase in dead-cell fraction,[4]; 0.01 µM,0.0022
same,increase in dead-cell fraction,[4]; 0.03162 µM,-0.0053
same,increase in dead-cell fraction,[4]; 0.1 µM,0.0185
same,increase in dead-cell fraction,[4]; 0.3162 µM,0.0656
same,increase in dead-cell fraction,[4]; 1 µM,0.228
same,increase in dead-cell fraction,[5]; 0.0001 µM,0.0046
same,increase in dead-cell fraction,[5]; 0.0003162 µM,0.0047
same,increase in dead-cell fraction,[5]; 0.001 µM,0.0003
same,increase in dead-cell fraction,[5]; 0.003162 µM,0.0002
same,increase in dead-cell fraction,[5]; 0.01 µM,-0.0009
same,increase in dead-cell fraction,[5]; 0.03162 µM,0.0121
same,increase in dead-cell fraction,[5]; 0.1 µM,0.0256
same,increase in dead-cell fraction,[5]; 0.3162 µM,0.117
same,increase in dead-cell fraction,[5]; 1 µM,0.134
same,increase in dead-cell fraction,[6]; 0.0001 µM,-0.0073
same,increase in dead-cell fraction,[6]; 0.0003162 µM,-0.0031
same,increase in dead-cell fraction,[6]; 0.001 µM,-0.0053
same,increase in dead-cell fraction,[6]; 0.003162 µM,-0.0066
same,increase in dead-cell fraction,[6]; 0.01 µM,0.0051
same,increase in dead-cell fraction,[6]; 0.03162 µM,0.0382
same,increase in dead-cell fraction,[6]; 0.1 µM,0.162
same,increase in dead-cell fraction,[6]; 0.3162 µM,0.192
same,increase in dead-cell fraction,[6]; 1 µM,0.165
same,increase in dead-cell fraction,[7]; 0.001 µM,-0.0077
same,increase in dead-cell fraction,[7]; 0.003162 µM,0.0012
same,increase in dead-cell fraction,[7]; 0.01 µM,0
same,increase in dead-cell fraction,[7]; 0.03162 µM,0.001
same,increase in dead-cell fraction,[7]; 0.1 µM,0.0077
same,increase in dead-cell fraction,[7]; 0.3162 µM,0.0065
same,increase in dead-cell fraction,[7]; 1 µM,0.0007
same,increase in dead-cell fraction,[7]; 3.162 µM,0.009
same,increase in dead-cell fraction,[7]; 10 µM,0.0365
same,increase in dead-cell fraction,[8]; 0.001 µM,0.0369
same,increase in dead-cell fraction,[8]; 0.003162 µM,0.0319
same,increase in dead-cell fraction,[8]; 0.01 µM,0.0518
same,increase in dead-cell fraction,[8]; 0.03162 µM,0.0428
same,increase in dead-cell fraction,[8]; 0.1 µM,0.0477
same,increase in dead-cell fraction,[8]; 0.3162 µM,0.0836
same,increase in dead-cell fraction,[8]; 1 µM,0.0896
same,increase in dead-cell fraction,[8]; 3.162 µM,0.0668
same,increase in dead-cell fraction,[8]; 10 µM,0.121
same,increase in dead-cell fraction,[9]; 0.0003162 µM,0.0048
same,increase in dead-cell fraction,[9]; 0.001 µM,0.0021
same,increase in dead-cell fraction,[9]; 0.003162 µM,-0.0047
same,increase in dead-cell fraction,[9]; 0.01 µM,-0.0052
same,increase in dead-cell fraction,[9]; 0.03162 µM,-0.0059
same,increase in dead-cell fraction,[9]; 0.1 µM,-0.0023
same,increase in dead-cell fraction,[9]; 0.3162 µM,-0.0052
same,increase in dead-cell fraction,[9]; 1 µM,-0.0085
same,increase in dead-cell fraction,[9]; 3.162 µM,0.0036
same,increase in dead-cell fraction,[10]; 0.0001 µM,-0.0025
same,increase in dead-cell fraction,[10]; 0.0003162 µM,-0.0033
same,increase in dead-cell fraction,[10]; 0.001 µM,0.0002
same,increase in dead-cell fraction,[10]; 0.003162 µM,-0.0039
same,increase in dead-cell fraction,[10]; 0.01 µM,0.006
same,increase in dead-cell fraction,[10]; 0.03162 µM,0.248
same,increase in dead-cell fraction,[10]; 0.1 µM,0.258
same,increase in dead-cell fraction,[10]; 0.3162 µM,0.254
same,increase in dead-cell fraction,[10]; 1 µM,0.239
same,"GR50, 72 h",[11],0.00177 µM
same,"GR50, 72 h",[12],3.03 µM
same,"GR50, 72 h",[13],0.00391 µM
same,"GR50, 72 h",[14],0.0506 µM
same,"GR50, 72 h",[15],5.01 µM
same,"GR50, 72 h",[16],1.45 µM
